In patent US20200166671A1, “LIPOIC ACID HYDROGELS” (UNIVERSIDADE DE SANTIAGO DE COMPOSTELA, priority 2017, published 2020):

Columns and labels:
[1] = Demulcent loading of hydrogel discs functionalized with CD; assay type: physicochemical; details: 20° C., aqueous demulcent solution
Experimental: Next, a different demulcent was loaded in each disc functionalized with CD.
The weighed hydrogel discs were placed in 5 or 10 mL of aqueous polysorbate 80 solutions (0.2; 0.5 or 1 mg/mL) and kept at 20° C. under magnetic stirring (80 rpm) for 24 hours. Absorbance of the medium was monitored at 234 nm (Agilent […] UV/Vis spectrophotometer, Germany). The amount of loaded polysorbate 80 was estimated from the difference between the amounts in the loading medium before and after the loading tests.
The weighed hydrogel discs were placed in 5 or 10 mL of aqueous PEG4000 solutions (0.1 mg/mL), kept at 20° C. under magnetic stirring (80 rpm) for 48 hours. Aliquots of loading medium were analyzed by means of HPLC. The loaded amount of PEG4000 was estimated from the difference between the amounts in the loading medium before and after the loading tests.
(§1) The weighed hydrogel discs were introduced in vials containing 10 mL of aqueous ALA solution (saturated, ˜0.8 mg/mL). The vials remained under oscillating agitation (150 osc/min) at 20° C. At times 24 and 48 h, a sample of 3 mL of the loading solution was taken and absorbance was measured at 334 nm (Agilent 8453 UV/VIS, Germany). The amount of ALA loaded for every hydrogel was calculated by the difference between the initial content in the loading solution and the remaining content at the end of the test.
The loading results, measured in amount of demulcent for every gram of dry mass of hydrogel, are shown below: […]

[2] = Saturated aqueous ALA solution; assay type: physicochemical
Experimental: as §1

[3] = tested on: peroxidase; details: Andrade et al., Exp Eye Res. 2014; cited from earlier work
[4] = Andrade et al., Exp Eye Res. 2014; cited from earlier work

Row | amount of demulcent for every gram of dry mass of hydrogel ([1]; loading 24 h) [mg/g] | amount of demulcent for every gram of dry mass of hydrogel ([1]; loading 48 h) [mg/g] | concentration of saturated aqueous ALA solution [2] [µg/mL] | Compound | peroxidase activity [3] | tear production [4]
1 | 57 | 58 | ~800 | O=C(O)CCCC[C@@H]1CCSS1 [α-lipoic acid] | increases peroxidase activity | increase in tear production
2 | 1 | – | – | Polysorbate 80 | – | –
